{"source": "patent US9931380B2", "about": "“Medicament for treating olfaction disorder” (priority 2015, dated 2018)", "key": {"[1]": {"tested_on": "olfactory epithelium", "assay": "Regeneration of olfactory epithelium in DM model mice with methimazole-induced olfactory disturbance after insulin administration", "format": "in vivo, C57BL/6 mice", "details": "for number of olfactory nerve cells, DM mice vs normal mice / thickness of olfactory epithelium, DM mice vs normal mice / number of mature olfactory nerve cells (number of OMP positive cells), DM mice vs normal mice: read 14 days after methimazole", "description": "(§1) To C57BL/6 mice (normal mice; Japan SLC, Inc) at the age of 10 weeks, 120 mg/kg of streptozotocin (STZ; Sigma-Aldrich) was administered intraperitoneally for three days in a row, on Days 0 (Initial administration), 1, and 2. On Day 7, those with a fasting blood glucose (fasting blood sugar level: FBS) of 250 mg/dl or more were defined as DM mice in which pancreatic β cells were specifically impaired. Moreover, subsequent operations used those with a blood sugar of more than 250 mg/dl at any time after about one week since the administration of STZ.\nTo each of positive control mice, which were created by giving only physiological saline to normal mice, and DM mice, 80 mg/kg of methimazole (Siyma-Aldrich) was administered intraperitoneally in order to create model mice with olfactory disturbance. The model mice with olfactory disturbance were created as metabolites of methimazole selectively damaged olfactory epithelium. The mechanism of olfactory disturbance is considered to be the activation of caspase that induces apoptosis in olfactory cells. When normal mice were given methimazole, the damaged olfactory epithelium could recover to the almost normal level about 28 days after the administration. Moreover, normal mice that were given physiological saline instead of methimazole were used as control. Their weight and blood sugar levels of tail veins were measured 28 days after the methimazole injection.\nThe hearts of mice were perfused with 4% paraformaldehyde in 0.1M phosphate buffer. The mice were sacrificed and fixed 24 hours later with the same fixative. Nostril tissues containing OE were decalcified with a 10% EDTA solution (pH 7.0), and were embedded in paraffin. Coronal sections (with thickness of 4 μm) were cut off and put on silane-coated slides. The deparaffinized sections were autoclaved for 10 minutes in Target Retrieval Solution (S1700; Dako) for antigen retrieval. Immunohistochemistry was conducted with one of the following antibodies: Anti-insulin receptors, anti-phosphorylated insulin receptors, anti-olfactory marker proteins (OMP, goat polyclonal, 1:4000 dilution; Wako Chemicals), anti-activated caspase-3 (rabbit polyclonal, 1:5000; Cell Signaling Technology), anti-Ki-67 (mouse monoclonal, 1:500; BD Biosciences), and anti-c-fos antibodies (Rabbit IgG, 1:1000; Santa Cruz Biotechnology).\nIn order to suppress the variation of data values that could be caused by anatomical changes (e.g. aerated nasal turbinate) between mice and in the mice, the OE analysis was conducted in such a way as to be limited to OE (olfactory epithelium) of the nasal septum and nasal turbinate's top on the right and left sides in the nasal cavity.\nSections were cut at intervals of 500 μm. The olfactory epithelium included the following two cell lines: Olfactory nerve cells (OSNs) and basal stem cells. Rectangular cells on lamina propria in OE were defined as basal cells. The rest of the cells were defined as OSNs. The thickness, or distance from the lamina propria to the surface, was measured with software known as ImageJ. The number of OSNs labeled with anti-OMP, anti-activated caspase-3, and anti-Ki-67 antibody was quantitatively analyzed by uniquely immunostaining for each antigen and using sections counterstained with hematoxylin. As for connective tissues under the lamina propria, the immunostaining of cells with an intermediate background intensity more than double the standard deviation was regarded as being positive. The number of OSNs and the number of immunostained cells (OMP-positive cells, Ki-67-positive cells, and caspase-3 positive cells) were measured along the total length of the nasal septum in microscopic observation images (of each of normal groups and STZ groups) for both the left and right sides. […]"}, "[2]": {"assay": "Blood sugar level of DM (STZ) mice given the insulin preparation", "format": "in vivo, C57BL/6 mice", "details": "intraperitoneally once a day, 2 to 3 U/kg of insulin detemir", "description": "as §1\nAs the insulin preparation, “Levemir FlexPen (Registered Trademark)” was used (referred to as Levemir). Levemir was administered intraperitoneally into DM mice once a day, with 2 to 3 U/kg of the insulin detemir each. […] The amount of insulin given here was therefore regarded as the amount that can properly resolve the shortages of insulin in the DM mice. The olfactory epithelium tissues of groups of DM mice (group a, group b, and group c) were observed 14 days after the administration of methimazole (Refer to FIGS. 9A and 9B): Each group differs on the time when insulin was additionally given. […] Then, with the use of the above-described method, the number of olfactory nerve cells (OSNs) of olfactory epithelium, the thickness of olfactory epithelium, and the number of OMP positive cells were counted in each group. […]"}, "[3]": {"details": "group a: 3 U/kg i.p. day 1 to 14"}, "[4]": {"details": "group b as printed: 3 U/kg i.p. day 1 to 7"}, "[5]": {"details": "group b: 3 U/kg i.p. only day 1 to 7, 14 days after onset of disturbance"}, "[6]": {"details": "groups a (day 1 to 14) and c (day 7 to 14), 3 U/kg i.p., 14 days after onset of disturbance"}}, "data": [{"substance": "insulin detemir [Levemir]", "values": [{"measurement": "number of olfactory nerve cells, DM mice vs normal mice", "setting": "[1]; [3]", "result": "no significant difference"}, {"measurement": "thickness of olfactory epithelium, DM mice vs normal mice", "setting": "[1]; [3]", "result": "no significant difference"}, {"measurement": "number of mature olfactory nerve cells (number of OMP positive cells), DM mice vs normal mice", "setting": "[1]; group a: 3 U/kg i.p. every day, day 1 to 14 after methimazole", "result": "broadly comparable to normal mice"}, {"measurement": "number of olfactory nerve cells, DM mice vs normal mice", "setting": "[1]; [4]", "result": "no significant difference"}, {"measurement": "thickness of olfactory epithelium, DM mice vs normal mice", "setting": "[1]; [4]", "result": "no significant difference"}, {"measurement": "number of mature olfactory nerve cells (number of OMP positive cells), DM mice vs normal mice", "setting": "[1]; group b as printed: 3 U/kg i.p. only day 1 to 7 after methimazole", "result": "broadly comparable to normal mice"}, {"measurement": "number of OMP positive cells, compared with groups a and c", "setting": "[1]; [5]", "result": "significant decreases"}, {"measurement": "number of OSNs, compared with groups a and c", "setting": "[1]; [5]", "result": "significant decreases"}, {"measurement": "thickness of olfactory epithelium, compared with groups a and c", "setting": "[1]; [5]", "result": "significant decreases"}, {"measurement": "number of OMP positive cells", "setting": "[1]; [6]", "result": "no significant differences"}, {"measurement": "number of OSNs", "setting": "[1]; [6]", "result": "no significant differences"}, {"measurement": "thickness of olfactory epithelium", "setting": "[1]; [6]", "result": "no significant differences"}, {"measurement": "blood sugar levels", "setting": "[2]", "result": "around 130 mg/dl"}]}]}
